Reference: PMC12615518, “Discovery of CRBN-recruiting PROTAC degraders of the METTL3-METTL14 complex” (Medicinal Chemistry Research, 2025)

Experiments:
[1] = molecular target: T1, METTL14 (Homo sapiens, UniProt Q9HCE5); assay: Immunoblotting (Western blot) degradation of METTL14 in MV4-11 cells; format: cell-based; conditions: MV4-11 cells, 24 h; for % reduction in MV4-11 cells, 0.3 µM, METTL14 / % reduction in MV4-11 cells, 1.0 µM, METTL14 / % degradation in MV4-11 cells, 0.3 µM, METTL14 / % degradation in MV4-11 cells, 1.0 µM, METTL14: immunoblotting; for % reduction in MV4-11 cells, 0.3 µM, METTL14 / % reduction in MV4-11 cells, 1.0 µM, METTL14: nd = no degradation
T1 construct: Following treatment, total cellular proteins were extracted using RIPA buffer; endogenous in cells; host or cells: MV4-11 (MV4.11) human AML cells, ATCC
Experimental: (§1) All cell lines were maintained under standard conditions in a humidified atmosphere at 37 °C with 5% CO₂.
(§2) Western Blot Analysis: Following treatment, total cellular proteins were extracted using RIPA buffer (Auragene, Changsha, China). […] After washing, membranes were incubated with horseradish peroxidase (HRP)-conjugated secondary antibodies (anti-rabbit or anti-mouse IgG; 1:5000) for 2 hours at room temperature. Protein bands were visualized using an enhanced chemiluminescence (ECL) detection kit (Amersham Pharmacia), following the manufacturer's protocol. Band intensities were quantified using ImageJ software and normalized to ACTIN as a loading control. Data was analyzed using GraphPad Prism 9.

[2] = molecular target: METTL3 (Homo sapiens, UniProt Q86U44); assay: Immunoblotting (Western blot) degradation of METTL3 in MV4-11 cells; format: cell-based; design: Following treatment, total cellular proteins were extracted using RIPA buffer; endogenous in cells; host or cells: MV4-11 (MV4.11) human AML cells, ATCC; conditions: MV4-11 cells, 24 h; for % reduction in MV4-11 cells, 0.3 µM, METTL3 / % reduction in MV4-11 cells, 1.0 µM, METTL3 / % degradation in MV4-11 cells, 0.3 µM, METTL3 / % degradation in MV4-11 cells, 1.0 µM, METTL3: immunoblotting; for % reduction in MV4-11 cells, 0.3 µM, METTL3 / % reduction in MV4-11 cells, 1.0 µM, METTL3: nd = no degradation
Experimental: as §1, §2

T1 sequence (Q9HCE5 whole entry): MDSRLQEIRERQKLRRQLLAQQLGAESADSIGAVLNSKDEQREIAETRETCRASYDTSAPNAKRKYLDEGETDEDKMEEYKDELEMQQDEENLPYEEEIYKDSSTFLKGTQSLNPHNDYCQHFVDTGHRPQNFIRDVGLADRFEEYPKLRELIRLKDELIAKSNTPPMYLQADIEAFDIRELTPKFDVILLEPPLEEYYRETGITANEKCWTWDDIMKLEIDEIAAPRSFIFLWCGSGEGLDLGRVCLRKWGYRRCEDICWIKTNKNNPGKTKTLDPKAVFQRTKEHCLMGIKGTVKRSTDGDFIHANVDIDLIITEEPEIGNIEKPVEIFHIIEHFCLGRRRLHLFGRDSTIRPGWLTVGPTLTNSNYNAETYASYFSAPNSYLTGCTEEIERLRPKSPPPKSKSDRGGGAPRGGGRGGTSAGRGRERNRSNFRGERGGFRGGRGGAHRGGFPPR
T1 sequence (Q86U44 2-580 partner): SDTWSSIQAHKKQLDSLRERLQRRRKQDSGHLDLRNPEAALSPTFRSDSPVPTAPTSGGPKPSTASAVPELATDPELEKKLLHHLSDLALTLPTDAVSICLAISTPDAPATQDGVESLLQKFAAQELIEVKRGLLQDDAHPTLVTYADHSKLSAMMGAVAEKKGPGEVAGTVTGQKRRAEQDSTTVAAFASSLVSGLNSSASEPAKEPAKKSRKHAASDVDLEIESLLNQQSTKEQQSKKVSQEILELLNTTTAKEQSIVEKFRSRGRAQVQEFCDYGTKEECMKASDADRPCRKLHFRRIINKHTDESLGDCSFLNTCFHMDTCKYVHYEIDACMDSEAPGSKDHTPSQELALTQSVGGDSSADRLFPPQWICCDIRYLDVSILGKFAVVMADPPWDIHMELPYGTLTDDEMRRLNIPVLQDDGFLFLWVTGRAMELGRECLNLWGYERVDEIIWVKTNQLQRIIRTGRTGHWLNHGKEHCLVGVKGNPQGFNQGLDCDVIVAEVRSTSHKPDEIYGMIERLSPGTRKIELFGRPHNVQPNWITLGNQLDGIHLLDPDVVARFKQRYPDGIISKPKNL
Sequence of METTL3 (Q86U44 2-580 limits assumed): as the sequence (Q86U44 2-580 partner) above
Sequence of METTL3 (Q9HCE5 whole entry partner): as the sequence (Q9HCE5 whole entry) above

Row | SMILES | % reduction in MV4-11 cells, 0.3 µM, METTL14 [1] | % reduction in MV4-11 cells, 1.0 µM, METTL14 [1] | % reduction in MV4-11 cells, 0.3 µM, METTL3 [2] | % reduction in MV4-11 cells, 1.0 µM, METTL3 [2] | % degradation in MV4-11 cells, 0.3 µM, METTL14 [1] | % degradation in MV4-11 cells, 1.0 µM, METTL14 [1] | % degradation in MV4-11 cells, 0.3 µM, METTL3 [2] | % degradation in MV4-11 cells, 1.0 µM, METTL3 [2] | further results
1 | CC1(C)CCN(Cc2cc(F)c(N3CC(=O)NC4(CCN(c5cc(NCCCCCC(=O)N6CCN(c7ccc8c(c7)C(=O)N(C7CCC(=O)NC7=O)C8=O)CC6)ncn5)CC4)C3)cc2F)CC1 (stereo not shown) [Compound 4b, 5-(4-(6-((6-(4-(4-((4,4-dimethylpiperidin-1-yl)methyl)-2,5-difluorophenyl)-2-oxo-1,4,9-triazaspiro[5.5]undecan-9-yl)pyrimidin-4-yl)amino)hexanoyl)piperazin-1-yl)-2-(2,6-dioxopiperidin-3-yl)isoindoline-1,3-dione] | 36% | 58% | 45% | 56% | – | – | – | – | –
2 | CC1(C)CCN(Cc2cc(F)c(N3CC(=O)NC4(CCN(c5cc(NCCCCCCCCC(=O)N6CCN(c7ccc8c(c7)C(=O)N(C7CCC(=O)NC7=O)C8=O)CC6)ncn5)CC4)C3)cc2F)CC1 (stereo not shown) [Compound 4e, 5-(4-(9-((6-(4-(4-((4,4-dimethylpiperidin-1-yl)methyl)-2,5-difluorophenyl)-2-oxo-1,4,9-triazaspiro[5.5]undecan-9-yl)pyrimidin-4-yl)amino)nonanoyl)piperazin-1-yl)-2-(2,6-dioxopiperidin-3-yl)isoindoline-1,3-dione] | 39% | 53% | 38% | 52% | – | – | – | – | –
3 | CC1(C)CCN(Cc2cc(F)c(N3CC(=O)NC4(CCN(c5cc(NCCCCCCC(=O)N6CCN(c7ccc8c(c7)CN(C7CCC(=O)NC7=O)C8=O)CC6)ncn5)CC4)C3)cc2F)CC1 (stereo not shown) [Compound 4g, 3-(5-(4-(7-((6-(4-(4-((4,4-dimethylpiperidin-1-yl)methyl)-2,5-difluorophenyl)-2-oxo-1,4,9-triazaspiro[5.5]undecan-9-yl)pyrimidin-4-yl)amino)heptanoyl)piperazin-1-yl)-1-oxoisoindolin-2-yl)piperidine-2,6-dione] | 0% | 34% | 9% | 25% | – | – | – | – | –
4 | CC1(C)CCN(Cc2cc(F)c(N3CC(=O)NC4(CCN(c5cc(NCCCCCCCC(=O)N6CCN(c7ccc8c(c7)CN(C7CCC(=O)NC7=O)C8=O)CC6)ncn5)CC4)C3)cc2F)CC1 (stereo not shown) [Compound 4h, 3-(5-(4-(8-((6-(4-(4-((4,4-dimethylpiperidin-1-yl)methyl)-2,5-difluorophenyl)-2-oxo-1,4,9-triazaspiro[5.5]undecan-9-yl)pyrimidin-4-yl)amino)octanoyl)piperazin-1-yl)-1-oxoisoindolin-2-yl)piperidine-2,6-dione] | 40% | 64% | 46% | 69% | – | – | – | – | –
5 | CNc1cc(N2CCC3(CC2)CN(c2cc(F)c(CN4CCC(C)(C(=O)NCCCCCCNc5cccc6c5C(=O)N(C5CCC(=O)NC5=O)C6=O)CC4)cc2F)CC(=O)N3)ncn1 (stereo not shown) [Compound 5b, 1-(2,5-difluoro-4-(9-(6-(methylamino)pyrimidin-4-yl)-2-oxo-1,4,9-triazaspiro[5.5]undecan-4-yl)benzyl)-N-(6-((2-(2,6-dioxopiperidin-3-yl)-1,3-dioxoisoindolin-4-yl)amino)hexyl)-4-methylpiperidine-4-carboxamide] | – | – | – | – | 20% | 21% | 55% | 56% | –
6 | CC1(C)CCN(Cc2cc(F)c(N3CC(=O)NC4(CCN(c5cc(NCCCCC(=O)N6CCN(c7ccc8c(c7)C(=O)N(C7CCC(=O)NC7=O)C8=O)CC6)ncn5)CC4)C3)cc2F)CC1 (stereo not shown) [Compound 4a, 5-(4-(5-((6-(4-(4-((4,4-dimethylpiperidin-1-yl)methyl)-2,5-difluorophenyl)-2-oxo-1,4,9-triazaspiro[5.5]undecan-9-yl)pyrimidin-4-yl)amino)pentanoyl)piperazin-1-yl)-2-(2,6-dioxopiperidin-3-yl)isoindoline-1,3-dione] | 6% | 27% | 14% | 47% | – | – | – | – | –
7 | CNc1cc(N2CCC3(CC2)CN(c2cc(F)c(CN4CCC(C)(C(=O)NCCCCCCCCNc5cccc6c5C(=O)N(C5CCC(=O)NC5=O)C6=O)CC4)cc2F)CC(=O)N3)ncn1 (stereo not shown) [Compound 5c, 1-(2,5-difluoro-4-(9-(6-(methylamino)pyrimidin-4-yl)-2-oxo-1,4,9-triazaspiro[5.5]undecan-4-yl)benzyl)-N-(8-((2-(2,6-dioxopiperidin-3-yl)-1,3-dioxoisoindolin-4-yl)amino)octyl)-4-methylpiperidine-4-carboxamide] | – | – | – | – | 20% | 24% | 50% | 54% | –
8 | CC1(C)CCN(Cc2cc(F)c(N3CC(=O)NC4(CCN(c5cc(NCCCCCCCC(=O)N6CCN(c7ccc8c(c7)C(=O)N(C7CCC(=O)NC7=O)C8=O)CC6)ncn5)CC4)C3)cc2F)CC1 (stereo not shown) [Compound 4d, 5-(4-(8-((6-(4-(4-((4,4-dimethylpiperidin-1-yl)methyl)-2,5-difluorophenyl)-2-oxo-1,4,9-triazaspiro[5.5]undecan-9-yl)pyrimidin-4-yl)amino)octanoyl)piperazin-1-yl)-2-(2,6-dioxopiperidin-3-yl)isoindoline-1,3-dione] | 51% | 67% | 52% | 68% | – | – | – | – | –
9 | CC1(C)CCN(Cc2cc(F)c(N3CC(=O)NC4(CCN(c5cc(NCCCCCCC(=O)N6CCN(c7ccc8c(c7)C(=O)N(C7CCC(=O)NC7=O)C8=O)CC6)ncn5)CC4)C3)cc2F)CC1 (stereo not shown) [Compound 4c, 5-(4-(7-((6-(4-(4-((4,4-dimethylpiperidin-1-yl)methyl)-2,5-difluorophenyl)-2-oxo-1,4,9-triazaspiro[5.5]undecan-9-yl)pyrimidin-4-yl)amino)heptanoyl)piperazin-1-yl)-2-(2,6-dioxopiperidin-3-yl)isoindoline-1,3-dione] | 46% | 61% | 43% | 62% | – | – | – | – | –
10 | CC1(C)CCN(Cc2cc(F)c(N3CC(=O)NC4(CCN(c5cc(NCCCCCCCCC(=O)N6CCN(c7ccc8c(c7)CN(C7CCC(=O)NC7=O)C8=O)CC6)ncn5)CC4)C3)cc2F)CC1 (stereo not shown) [Compound 4i, 3-(5-(4-(9-((6-(4-(4-((4,4-dimethylpiperidin-1-yl)methyl)-2,5-difluorophenyl)-2-oxo-1,4,9-triazaspiro[5.5]undecan-9-yl)pyrimidin-4-yl)amino)nonanoyl)piperazin-1-yl)-1-oxoisoindolin-2-yl)piperidine-2,6-dione] | 54% | 72% | 52% | 73% | – | – | – | – | –
11 | CNc1cc(N2CCC3(CC2)CN(c2cc(F)c(CN4CCC(C)(C(=O)NCCCCCCCCCCNc5cccc6c5C(=O)N(C5CCC(=O)NC5=O)C6=O)CC4)cc2F)CC(=O)N3)ncn1 (stereo not shown) [Compound 5d, 1-(2,5-difluoro-4-(9-(6-(methylamino)pyrimidin-4-yl)-2-oxo-1,4,9-triazaspiro[5.5]undecan-4-yl)benzyl)-N-(10-((2-(2,6-dioxopiperidin-3-yl)-1,3-dioxoisoindolin-4-yl)amino)decyl)-4-methylpiperidine-4-carboxamide] | – | – | – | – | 34% | 21% | 26% | 3% | –
12 | CNc1cc(N2CCC3(CC2)CN(c2cc(F)c(CN4CCC(C)(C(=O)NCCCCNc5cccc6c5C(=O)N(C5CCC(=O)NC5=O)C6=O)CC4)cc2F)CC(=O)N3)ncn1 (stereo not shown) [Compound 5a, 1-(2,5-difluoro-4-(9-(6-(methylamino)pyrimidin-4-yl)-2-oxo-1,4,9-triazaspiro[5.5]undecan-4-yl)benzyl)-N-(4-((2-(2,6-dioxopiperidin-3-yl)-1,3-dioxoisoindolin-4-yl)amino)butyl)-4-methylpiperidine-4-carboxamide] | – | – | – | – | 8% | 21% | 33% | 52% | –
13 | CN1C(=O)CCC(N2Cc3cc(N4CCN(C(=O)CCCCCCCCCNc5cc(N6CCC7(CC6)CN(c6cc(F)c(CN8CCC(C)(C)CC8)cc6F)CC(=O)N7)ncn5)CC4)ccc3C2=O)C1=O (stereo not shown) [Compound 4k, 3-(5-(4-(10-((6-(4-(4-((4,4-dimethylpiperidin-1-yl)methyl)-2,5-difluorophenyl)-2-oxo-1,4,9-triazaspiro[5.5]undecan-9-yl)pyrimidin-4-yl)amino)decanoyl)piperazin-1-yl)-1-oxoisoindolin-2-yl)-1-methylpiperidine-2,6-dione] | – | – | – | – | – | – | – | – | degradation of METTL14 at 1 µM (in words) ([1]; 1 µM, Fig. 4A right): not degraded; degradation of METTL14 (in words) ([1]; Table 1 screening): did not induce degradation; degradation of METTL3 at 1 µM (in words) ([2]; 1 µM, Fig. 4A right): not degraded; degradation of METTL3 (in words) ([2]; Table 1 screening): did not induce degradation
